SMILES strings stand for the structures. Read-outs that look alike come from different tables or passages of the source. Square brackets hold non-standard residues; d marks the D form. Peptide text beside a SMILES is read from it. * marks the point of attachment. Dolaproine = CO[C@@H]([C@@H]1CCCN1)[C@@H](C)C(=O)O; Phe(βS-OH) = N[C@H](C(=O)O)[C@@H](O)c1ccccc1; Dil = CC[C@H](C)[C@H](NC)[C@@H](CC(=O)O)OC; X1 = CC(C)[C@@H](C(=O)*)N(C)CCS; X2 = CSCCN(C)[C@H](C(=O)*)C(C)C

Consider six compounds from US20240108744A1, “AURISTATIN DERIVATIVES AND CONJUGATES THEREOF” (priority 2022, published 2024).

Holding throughout (type): cell-based
The subject of assay [1] is SK-OV-3. Description: In vitro cytotoxicity (CCK-8) in SK-OV-3 cells. As to conditions: Homo sapiens. The procedure:
(§1) Cytotoxic potencies of the compounds are assessed in flat-bottomed 96-well cell culture plates (Corning Costar) using cell counting Kit-8 (CCK-8) assay (Shanghai Life Lab Biotech Co., Ltd.). Briefly, human tumor cells (1,000-10,000 cells/well, depending on the cell line), in the appropriate culture medium are incubated, with the compounds, or with conjugates in the presence or absence of an excess of the corresponding unconjugated antibodies, for 120 hours, at 37° C., 5% CO2.
(§2) Dispensed 175 μL cell suspension in 96-well plate at 1500 cells per well and incubate for 24 hours in a humidified incubator (37° C., 5% CO2). Added 25 μL various concentrations of compound as a 5× solution into the cell culture medium (Fetal bovine serum, Invitrogen) in the plate and incubated for 120 hours in the incubator. Thawed CCK-8 on the bench top or in a 37° C. water bath, added 10 μL of CCK-8 to each well of the incubated plate (be careful not introducing air bubbles into the wells since they would interfere with the O. D. reading) and then further incubated for 1-4 hours in the incubator. Measured the absorbance at 450 nm using a SpectraMax i3x Microplate Reader and calculated the cell inhibition rate. The IC50 curves were generated along with the IC50 values by using GraphPad Prism software.

The test system of assay [2] is NCI-N87. Description: In vitro cytotoxicity (CCK-8) in NCI-N87 cells. As to conditions: Homo sapiens, NCI-N87 cell line, 120 hours incubation. The procedure: as §1, §2
Assay [3] has as its system HCC 827. Description: In vitro cytotoxicity (CCK-8) in HCC 827 cells. The following applies: Homo sapiens. The procedure:
as §1, §2

Assay [4] relates to JMT-1. Description: In vitro cytotoxicity (CCK-8) in JMT-1 cells. The following applies: Homo sapiens, JMT-1 cell line, 120 hours incubation. The procedure: as §1, §2
For assay [5], the system named is NCI-H2110. Description: In vitro cytotoxicity (CCK-8) in NCI-H2110 cells. As to conditions: Homo sapiens. The procedure: as §1, §2
Assay [6] has as its system SK-BR-3. Description: In vitro cytotoxicity (CCK-8) in SK-BR-3 cells. The following applies: Homo sapiens, SK-BR-3 cell line, 120 hours incubation. The procedure:
as §1, §2

Assay [7] relates to BR 474. Description: In vitro cytotoxicity (CCK-8) in BR 474 cells. The following applies: Homo sapiens, BR 474 cell line, 120 hours incubation. The procedure: as §1, §2
For assay [8], the system named is OVCAR-3. Description: In vitro cytotoxicity (CCK-8) in OVCAR-3 cells. The following applies: Homo sapiens. The procedure:
as §1, §2

[9] abbreviates: SK-OV-3 cell line, 120 hours incubation, CCK-8, read-out: IC50.
Where [10] appears, read: HCC827, HCC 827 cell line, 120 hours incubation, CCK-8, read-out: IC50.
[11] abbreviates: NCI-H2110 cell line, 120 hours incubation, CCK-8, read-out: IC50.
[12] abbreviates: OVCAR-3 cell line, 120 hours incubation, CCK-8, read-out: IC50.

As to `CC[C@@]1(O)C(=O)OCc2c1cc1n(c2=O)Cc2cc3c(CCCCO)c(C)c(F)cc3nc2-1`, the half-inhibitory concentration (IC50) (in general, the concentration that gives 50% inhibition) in assay [1] (setting [9]) amounted to 0.36 nM; in assay [2], 2.6 nM; in assay [3] (setting [10]), 0.78 nM; in assay [4], 14 nM; in assay [5] (setting [11]), 0.85 nM; in assay [6], 0.014 nM. The half-inhibitory concentration (IC50) in assay [7] is greater than 1000 nM; in assay [8] (setting [12]), 0.1 nM.

As to `CC[C@H](C)[C@@H]([C@@H](CC(=O)N1CCC[C@H]1[C@H](OC)[C@@H](C)C(=O)N[C@H](C(=O)O)[C@@H](O)c1ccccc1)OC)N(C)C(=O)[C@@H](NC(=O)[C@H](C(C)C)N(C)CCS)C(C)C` (X1-V[Dil][Dolaproine][Phe(βS-OH)]-OH), the IC50 in assay [1] (setting [9]) turned out to be 38 nM; in assay [3] (setting [10]), 108 nM; in assay [5] (setting [11]) it was 12 nM; in assay [8] (setting [12]), 67.6 nM.

With `CC[C@H](C)[C@@H]([C@@H](CC(=O)N1CCC[C@H]1[C@H](OC)[C@@H](C)C(=O)N[C@H](C)[C@@H](O)c1ccccc1)OC)N(C)C(=O)[C@@H](NC(=O)[C@H](C(C)C)N(C)CCS)C(C)C`, the concentration for half-maximal inhibition (IC50) is 7.7 nM in assay [1] (setting [9]); 4.8 nM in assay [2]; 2.1 nM in assay [4]; 10 nM in assay [5] (setting [11]); 1.7 nM in assay [6]; 5.1 nM in assay [7].

`CC[C@H](C)[C@@H]([C@@H](CC(=O)N1CCC[C@H]1[C@H](OC)[C@@H](C)C(=O)N[C@H](C(=O)O)[C@@H](O)c1ccccc1)OC)N(C)C(=O)[C@@H](NC(=O)[C@H](C(C)C)N(C)CCSC)C(C)C` (X2-V[Dil][Dolaproine][Phe(βS-OH)]-OH): the IC50 in assay [2] worked out at 32.3 nM; in assay [4] it was 36.1 nM; in assay [6], 13.6 nM.

With `CC[C@@]1(O)C(=O)OCc2c1cc1n(c2=O)Cc2c-1nc1cc(F)c(C)c3c1c2[C@@H](NC(=O)CO)CC3`, the IC50 in assay [1] (SK-OV-3, 120 h) was 3.6 nM; in assay [3] (HCC827, 120 h), 1.8 nM; in assay [5] (NCI-H2110, 120 h), 4.1 nM; in assay [8] (OVCAR-3, 120 h), 0.2 nM.

On to `CC[C@H](C)[C@@H]([C@@H](CC(=O)N1CCC[C@H]1[C@H](OC)[C@@H](C)C(=O)N[C@H](C)[C@@H](O)c1ccccc1)OC)N(C)C(=O)[C@@H](NC(=O)[C@H](C(C)C)N(C)CCSC)C(C)C`, for which the IC50 in assay [2] was found to be 0.94 nM; in assay [4], 0.49 nM; in assay [6], 0.41 nM.
